In PubChem BioAssay (NCI) one finds GI50 and TGI data, which are given here for nine molecules.

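Each compound was tested at five concentrations against cells in 96-well plates for 48 hours. Abbreviation: GI50, concentration required for 50% inhibition of growth. TGI is the concentration that stops growth completely.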

Among the test systems are CAKI-1 renal; K-562 leukemia; MCF7 breast; SK-MEL-28 melanoma; SK-MEL-5 melanoma; SN12C renal; SNB-19 CNS; SR leukemia; UACC-257 melanoma; RXF 393 renal.
What all share (test): NCI anticancer screen, dose series, 48 h

Consider `Brc1cccc(-c2cc(-c3ccc4nccnc4c3)[nH]n2)c1`, for which the GI50 is 0.599 µM in the experiment on CAKI-1 renal; 0.215 µM in the experiment on K-562 leukemia; 0.413 µM in the experiment with MCF7 breast; 4.87 µM in the experiment on SK-MEL-28 melanoma; 0.783 µM with SK-MEL-5 melanoma; 1.39 µM in the experiment with SN12C renal. In addition, the GI50 with SNB-19 CNS is 1.41 µM; with SR leukemia, 0.139 µM. Moreover, the TGI in the experiment with CAKI-1 renal is more than 250 µM; in the experiment with K-562 leukemia, more than 250 µM; with MCF7 breast, more than 250 µM; in the experiment on SK-MEL-28 melanoma, more than 250 µM; with SK-MEL-5 melanoma, 11.7 µM; in the experiment with SN12C renal, more than 250 µM. In addition, the TGI with SNB-19 CNS is more than 250 µM; with SR leukemia, more than 104 µM; in the experiment with UACC-257 melanoma, more than 250 µM.

As to `O=c1c(-c2ccccc2)coc2cc(OC/C(=N/O)c3ccc(F)cc3)ccc12`, the GI50 in the experiment on CAKI-1 renal was 0.0715 µM; with K-562 leukemia it was 16.2 µM; in the experiment on MCF7 breast it was 25.9 µM; with RXF 393 renal it was 17.7 µM; in the experiment with SK-MEL-28 melanoma, 19.2 µM; in the experiment with SK-MEL-5 melanoma it was 11.6 µM. The GI50 is 16.2 µM in the experiment with SN12C renal, 18.7 µM with SNB-19 CNS and 10.2 µM in the experiment on UACC-257 melanoma. Also, the TGI with CAKI-1 renal was 26.3 µM; in the experiment with K-562 leukemia it was more than 100 µM; in the experiment with MCF7 breast, more than 100 µM; with RXF 393 renal it was 37.5 µM; in the experiment with SK-MEL-28 melanoma it was more than 100 µM; with SK-MEL-5 melanoma, 23.9 µM. The figures for the TGI in the experiment on SN12C renal, with SNB-19 CNS and in the experiment with UACC-257 melanoma were 34.2 µM, 53.5 µM and 27.3 µM, respectively.

In the case of `Cc1c2ccncc2c(C)c2c1c1cc(CO)ccc1n2C`, the GI50 in the experiment on K-562 leukemia is 0.473 µM; with MCF7 breast, 0.282 µM; in the experiment with RXF 393 renal it was 0.41 µM; in the experiment with SK-MEL-28 melanoma, 1.82 µM; in the experiment with SK-MEL-5 melanoma, 1.08 µM; in the experiment on SN12C renal, 0.442 µM. Besides, the GI50 was 0.431 µM in the experiment with SNB-19 CNS and 0.268 µM in the experiment on SR leukemia. Moreover, the TGI in the experiment with K-562 leukemia was 5.82 µM; in the experiment on MCF7 breast, 10.4 µM; with RXF 393 renal, 1.7 µM; in the experiment with SK-MEL-28 melanoma, 6.5 µM; in the experiment on SK-MEL-5 melanoma, 2.7 µM; in the experiment on SN12C renal it was 5.35 µM. Moreover, the TGI in the experiment on SNB-19 CNS amounted to 4.24 µM; with SR leukemia it was 2.65 µM.

As for `CC(=O)OC(C)C(OC(C)=O)C(OC(C)=O)C(/C=C/C1CC=CC(=O)O1)OC(C)=O` (stereo unspecified), the GI50 is 43.3 µM in the experiment with CAKI-1 renal; 33.6 µM in the experiment on MCF7 breast; 21.3 µM in the experiment on RXF 393 renal; 16.8 µM with SK-MEL-28 melanoma; 26.3 µM in the experiment on SK-MEL-5 melanoma; 10.5 µM in the experiment on SN12C renal. In addition, the GI50 was 33.5 µM with SNB-19 CNS, 19.4 µM in the experiment on SR leukemia and 19.5 µM in the experiment with UACC-257 melanoma. The TGI with CAKI-1 renal is more than 100 µM; with MCF7 breast, more than 100 µM; with RXF 393 renal, 73.4 µM; in the experiment with SK-MEL-28 melanoma, 46.6 µM; in the experiment with SK-MEL-5 melanoma it was more than 100 µM; in the experiment on SN12C renal, 36.4 µM. Further, the results for the TGI in the experiment with SNB-19 CNS, with SR leukemia and in the experiment on UACC-257 melanoma were more than 100 µM, 53.4 µM and 42.1 µM, respectively.

Take `Nc1n[nH]c2ccc([C@@H]3Nc4cc5[nH]ncc5cc4[C@H]4C5CCC(C5)[C@@H]34)cc12` (stereo partly specified): the GI50 with CAKI-1 renal is 0.355 µM; in the experiment on K-562 leukemia, 0.315 µM; in the experiment on MCF7 breast it was 0.384 µM; in the experiment on SK-MEL-28 melanoma, 10.5 µM; in the experiment on SK-MEL-5 melanoma it was 0.493 µM; in the experiment with SN12C renal it was 0.525 µM. The GI50 with SNB-19 CNS was 0.436 µM; in the experiment with SR leukemia, 0.564 µM; in the experiment with UACC-257 melanoma it was 14.9 µM. The TGI was more than 39.2 µM in the experiment on CAKI-1 renal; more than 100 µM with K-562 leukemia; more than 80.8 µM in the experiment on MCF7 breast; 72.2 µM in the experiment on SK-MEL-28 melanoma; 6.57 µM in the experiment on SK-MEL-5 melanoma; more than 82.9 µM with SN12C renal. The TGI in the experiment with SNB-19 CNS is more than 100 µM; in the experiment on SR leukemia, more than 100 µM; in the experiment with UACC-257 melanoma it was more than 78.4 µM.

Take `COc1cc2c(cc1-c1coc3cc(OCC=C(C)C)ccc3c1=O)OCO2`: the TGI with CAKI-1 renal was 58.5 µM; in the experiment on K-562 leukemia, more than 100 µM; in the experiment with MCF7 breast, more than 100 µM; with SK-MEL-28 melanoma it was more than 100 µM; with SK-MEL-5 melanoma it was 36.9 µM; with SN12C renal, more than 100 µM. Besides, the figures for the TGI with SNB-19 CNS, with SR leukemia and with UACC-257 melanoma were more than 100 µM, 33.3 µM and more than 100 µM, respectively.

Regarding `CCN(C(=O)CN1CCN(c2cc3c(cc2F)c(=O)c(C(=O)O)cn3CC)CC1)c1nc(-c2ccccc2)cs1`, the GI50 with CAKI-1 renal was 0.312 µM; with K-562 leukemia it was 0.337 µM; with MCF7 breast it was 0.295 µM; in the experiment on RXF 393 renal, 0.381 µM; in the experiment on SK-MEL-28 melanoma, 0.59 µM; in the experiment with SK-MEL-5 melanoma it was 0.238 µM. Besides, the GI50 is 0.402 µM in the experiment on SN12C renal, 0.451 µM with SNB-19 CNS and 0.307 µM in the experiment with UACC-257 melanoma. Besides, the TGI was more than 100 µM in the experiment on CAKI-1 renal; more than 100 µM in the experiment on K-562 leukemia; more than 100 µM in the experiment with MCF7 breast; more than 100 µM with RXF 393 renal; more than 100 µM with SK-MEL-28 melanoma; 0.551 µM in the experiment on SK-MEL-5 melanoma. For the same molecule, the TGI with SN12C renal was more than 100 µM; with SNB-19 CNS, more than 100 µM; with UACC-257 melanoma it was 1.55 µM.

Turning to `CC1=C(C(=O)Nc2ccc(F)c(Cl)c2)C(c2ccccc2O)NC(=O)N1` (stereo unspecified), the GI50 is more than 100 µM in the experiment on CAKI-1 renal; 58.1 µM with K-562 leukemia; 70.5 µM in the experiment with MCF7 breast; more than 100 µM in the experiment on RXF 393 renal; 79.7 µM with SK-MEL-28 melanoma; 41.2 µM with SK-MEL-5 melanoma. Further, the GI50 with SN12C renal, in the experiment with SNB-19 CNS and with UACC-257 melanoma was more than 100 µM each time. The TGI with CAKI-1 renal, in the experiment on K-562 leukemia, with MCF7 breast, in the experiment on RXF 393 renal, in the experiment on SK-MEL-28 melanoma and in the experiment with SK-MEL-5 melanoma was more than 100 µM throughout. Also, the TGI with SN12C renal, with SNB-19 CNS and with UACC-257 melanoma was more than 100 µM each time.

For the molecule `O=C(O)COc1ccc(C(=O)/C(SS/C(C(=O)c2ccc(OCC(=O)O)c(Cl)c2Cl)=C2\C=C(c3ccc(Br)cc3)SS2)=C2/C=C(c3ccc(Br)cc3)SS2)c(Cl)c1Cl`, the TGI with CAKI-1 renal is 99.4 µM; with K-562 leukemia, more than 100 µM; with MCF7 breast, 13.2 µM; in the experiment on SK-MEL-28 melanoma it was more than 100 µM; in the experiment on SK-MEL-5 melanoma it was 43.1 µM; in the experiment with SN12C renal, more than 100 µM. The TGI with SNB-19 CNS was 33.1 µM; with SR leukemia it was 8.59 µM; in the experiment on UACC-257 melanoma, more than 67.4 µM.
